Test results: patent US5705499A, “8-arylalkyl- and 8-arylheteroalkyl-5,11-dihydro-6H-dipyrido[3,2-B:2',3'-e][1]diazepines and their use in the treatment of HIV-1 infection” (Boehringer Ingelheim Pharmaceuticals, Inc., priority 1996, dated 1998)

Tested on: C8166-45 cell line
Assay: MTT Assay (cytotoxicity)
Assay type: cell-based, human
Settings: C8166-45 cells, five days

| Compound | MTT Assay CC30 [µM] |
| --- | --- |
| CCN1c2ncc([C@@H]3O[C@@H]3c3ccccc3)cc2C(=O)N(C)c2ccc(Cl)nc21 (relative stereo) [Example 46, 2Chloro-5,11-dihydro-11-ethyl-5-methyl-8-(2-phenyloxiranyl)-6H-dipyrido[3,2-b:2',3'-e][1,4]diazepin-6-one] | > 30 |
| CCN1c2ncc(CCc3cc[n+]([O-])cc3)cc2C(=O)N(C)c2ccc(Cl)nc21 [Example 8, 2-Chloro-5,11-dihydro-11-ethyl-8-[2-(4-(N-oxopyridyl))ethyl]-5-methyl-6H-dipyrido[3,2-b:2',3'-e][1,4]diazepin-6-one] | > 256 |
| CCN1c2ncc(CC(O)c3ccncc3)cc2C(=O)N(C)c2ccc(Cl)nc21 (centres unmarked) [Example 9, 2-Chloro-5,11-dihydro-11-ethyl-8-[2-hydroxy-2-(pyrid-4yl)ethyl-]5methyl-6H-dipyridol[3,2-b:2',3'-e][1,4]diazepin-6-one] | 150 |
| CCN1c2ncc(CC(F)c3ccncc3)cc2C(=O)N(C)c2ccc(Cl)nc21 (centres unmarked) [Example 11, 2-Chloro-5,11-dihydro-11-ethyl-8-[2-fluoro-2-(4-pyridyl)ethyl]-5-methyl-6H-dipyrido-[3,2-b:2',3'-e][1,4]diazepin-6-one] | 150 |
| CCN1c2ncc(CC(=O)c3ccncc3)cc2C(=O)N(C)c2ccc(Cl)nc21 [Example 12, 2-Chloro-5,11-dihydro-11-ethyl-8-[2-oxo-2-(4-pyridyl)ethyl]-5-methyl-6H-dipyrido[3,2-b:2',3'-e][1,4]diazepin-6-one] | 250 |
| CCN1c2ncc(CC(O)c3cc[n+]([O-])cc3)cc2C(=O)N(C)c2ccc(Cl)nc21 (centres unmarked) [Example 13, 2-Chloro-5,11-dihydro-11-ethyl-8-[2-hydroxy-2-(N-oxo-pyrid-4-yl)ethyl]-5-methyl-6H-dipyrido[3,2-b:2',3'-e][1,4]diazepin-6-one] | > 128 |
| CCN1c2ncc(CCc3cccc(N)c3)cc2C(=O)N(C)c2ccc(Cl)nc21 [Example 22, 8-[2-(3-Aminophenyl)ethyl]-2-chloro-5,11-dihydro-11-ethyl-5-methyl-6H-dipyrido[3,2-b:2',3'-e][1,4]diazepin-6-one] | 60 |
| CCN1c2ncc(CCc3cccc(NC(N)=O)c3)cc2C(=O)N(C)c2ccc(Cl)nc21 [Example 26, 2Chloro-5,11-dihydro-11-ethyl-5-methyl-8-2-[(3-ureidophenyl)ethyl]-6H-dipyrido[3,2-b:2',3'-e][1,4]diazepin-6-one] | 35 |
| CCN1c2ncc(CCc3cccc4[nH]ccc34)cc2C(=O)N(C)c2cccnc21 [Example 29, 5,11-Dihydro-11-ethyl-5methyl-8-[2-(4-indolyl)ethyl]-6H-dipyrido[3,2-b:2',3'-e][1,4]diazepin-6-one] | > 60 |
| CN1C(=O)c2cc(CCc3ccncc3)cnc2N(C2CC2)c2nc(Cl)ccc21 [Example 37, 2Chloro-11-cyclopropyl-5,11-dihydro-5-methyl-8-[2-(pyrid-4-yl)ethyl]-6H-dipyrido[3,2-b:2',3'-e][1,4]diazepin-6-one] | > 60 |
| CCN1c2ncc(CCc3ccncc3)cc2C(=O)N(C)c2ccc(F)nc21 [Example 38, 5,11-Dihydro-11-ethyl-2-fluoro-5-methyl-8-[2-(pyrid-4-yl)ethyl]-6H-dipyrido[3,2-b:2',3'-e][1,4]diazepin-6-one] | 150 to 175 |
| CCN1c2ncc(CC(O)c3ccncc3)cc2C(=O)N(C)c2ccc(F)nc21 (centres unmarked) [Example 40, 5,11-Dihydro-11-ethyl-2-fluoro-8-[2-hydroxy-2-(pyrid-4-yl)ethyl]-5-methyl-6H-dipyrido[3,2-b:2',3'-e][1,4]diazepin-6-one] | > 20 |
| CCN1c2ncc(CCc3ccc4ccccc4c3)cc2C(=O)N(C)c2ccc(F)nc21 [Example 41, 5,11-Dihydro-11-ethyl-2-fluoro-5-methyl-8-[2-(2-naphthyl)ethyl]-6H-dipyrido[3,2-b:2',3'-e][1,4]diazepin-6-one] | 20 |
| CCN1c2ncc(CCc3ccccc3C)cc2C(=O)N(C)c2cccnc21 [Example 62, 5,11-Dihydro-11-ethyl-5-methyl-8-[2-(2-tolyl)ethyl]-6H-dipyrido[3,2-b:2',3'-e][1,4]diazepin-6-one] | > 130 |
| CCN1c2ncc(CCc3ccccc3N)cc2C(=O)N(C)c2cccnc21 [Example 64, 8-[2-(2-Aminophenyl)ethyl]-5,11-dihydro-11-ethyl-5-methyl-6H-dipyrido[3.2-b:2',3'-e][1,4]diazepin-6-one] | > 200 |
| CCN1c2ncc(CCc3ccnc(C)c3)cc2C(=O)N(C)c2cccnc21 [Example 65, 5,11-Dihydro-11-ethyl-5-methyl-8-[2-(2-methylpyrid-4-yl)ethyl]-6H-dipyrido[3,2-b:2',3'-e][1,4]diazepin-6-one] | 230 |
| CCN1c2ncc(CCc3ccnc(C)c3)cc2C(=O)N(C)c2ccc(Cl)nc21 [Example 66, 2-Chloro-5,11-dihydro-11-ethyl-5-methyl-8-[2-(2-methylpyrid-4-yl)ethyl]-6H-dipyrido[3,2-b:2',3'-e][1.4]diazepin-6-one] | 100 |
| CCN1c2ncc(CCc3ccnc(CO)c3)cc2C(=O)N(C)c2ccc(Cl)nc21 [Example 67, 2-Chloro-5,11-dihydro-11-ethyl-5-methyl-8-[2-(2-hydroxymethyl-4-pyridyl)ethyl]-6H -dipyrido[3,2-b:2',3'-e][1,4]diazepin-6-one] | 128 |

| Compound | MTT Assay CC30 [µM] |
| --- | --- |
| CCN1c2ncc(CCc3ccnc(C(N)=O)c3)cc2C(=O)N(C)c2ccc(Cl)nc21 [Example 69, 2-Chloro-5,11-dihydro-11-ethyl-5-methyl-8-[2-(2-carboxamidopyrid-4-yl)ethyl]-6H-dipyrido[3,2-b:2',3'-e][1,4]diazepin-6-one] | > 128 |
| CCN1c2ncc(CCc3ccccc3)cc2C(=O)Nc2c1nc(Cl)c(Br)c2C [Example 75, 3-Bromo-2-chloro-5,11-dihydro-11-ethyl-4-methyl-8-(2-phenylethyl)-6H-dipyrido[3,2-b:2',3'-e][1,4]diazepin-6-one] | > 130 |
| CCN1c2ncc(CCc3ccccc3)cc2C(=O)Nc2c(C)ccnc21 [Example 76, 5,11-Dihydro-11-ethyl-4-methyl-8-(2-phenylethyl)-6H-dipyrido[3,2-b:2',3'-e][1,4]diazepin-6-one] | > 130 |
| CCN1c2ncc(C=O)cc2C(=O)N(C)c2ccc(Cl)nc21 [Example 80, 2-chloro-5,11-dihydro-11-ethyl-8-formyl-5-methyl-6H-dipyrido[3,2-b:2',3'-e][1,4]diazepin-6-one] | 65 |
| CCN1c2ncc(CCl)cc2C(=O)N(C)c2ccc(Cl)nc21 [Example 82, 2-chloro-8-chloromethyl-5,11-dihydro-11-ethyl-5-methyl-6H-dipyrido[3,2-b:2',3'-e][1,4]diazepin-6-one] | > 256 |
| CCN1c2ncc(CCO)cc2C(=O)N(C)c2ccc(Cl)nc21 [Example 85, 2-chloro-5,11-dihydro-11-ethyl-8-(β-hydroxy)ethyl-5-methyl-6H-dipyrido[3,2-b:2',3'-e][1,4]diazepin-6-one] | > 256 |
| CCN1c2ncc(C(C)O)cc2C(=O)N(C)c2ccc(Cl)nc21 (stereo not drawn) [Example 86, 2-chloro-5,11-dihydro-11-ethyl-8-(α-hydroxy)ethyl-5-methyl-6H-dipyrido[3,2-b:2',3'-e][1,4]diazepin-6-one] | 256 |
| CCN1c2ncc(CNc3ccccc3)cc2C(=O)N(C)c2ccc(Cl)nc21 [Example 87, 2-chloro-5,11-dihydro-11-ethyl-5-methyl-8-(phenylamino)methyl-6H-dipyrido[3,2-b:2',3'-e][1,4]diazepin-6-one] | > 60 |
| CCN1c2ncc(CNc3cccc(N)c3)cc2C(=O)N(C)c2ccc(Cl)nc21 [Example 88, 8-(3-aminophenylamino)methyl-2-chloro-5,11-dihydro-11-ethyl-5-methyl-6H-dipyrido[3,2-b:2',3'-e][1,4]diazepin-6-one] | 60 |
| CCN1c2ncc(O)cc2C(=O)N(C)c2ccc(Cl)nc21 [Example 89, 2-chloro-5,11-dihydro-11-ethyl-8-hydroxy-5-methyl-6H-dipyrido[3,2-b:2',3'-e[]1,4]diazepin-6-one] | 130 |
| CCN1c2ncc(OCc3ccccc3)cc2C(=O)N(C)c2ccc(Cl)nc21 [Example 90, 2-chloro-5,11-dihydro-11-ethyl-5-methyl-8-phenylmethoxy-6H-dipyrido[3,2-b:2',3'-e][1,4]diazepin-6-one] | > 60 |
| CCN1c2ncc(COc3cc[n+]([O-])c(C)c3)cc2C(=O)N(C)c2ccc(Cl)nc21 [Example 94, 2-chloro-5,11-dihydro-11-ethyl-5-methyl-8-(N-oxo-2-methylpyrid-4-yloxy)methyl-6H-dipyrido[3,2-b:2',3'-e][1,4]diazepin-6-one] | 200 |
| CCN1c2ncc(COc3cc[n+]([O-])c(C(F)(F)F)c3)cc2C(=O)N(C)c2ccc(Cl)nc21 [Example 95, 2-chloro-5,11-dihydro-11-ethyl-5-methyl-8-(N-oxo-2-trifluoromethylpyrid-4-yloxy)methyl-6H-dipyrido[3,2-b:2',3'-e][1,4]diazepin-6-one] | 100 |
| CCN1c2ncc(COc3cc[n+]([O-])cc3)cc2C(=O)N(C)c2cccnc21 [Example 97, 5,11-dihydro-11-ethyl-5-methyl-8-((1-oxo-pyridin-4-yl)oxy)methyl-6H-dipyrido[3,2-b:2',3'-e][1,4]diazepin-6-one] | > 130 |
| CCN1c2ncc(COc3cccc([N+](=O)[O-])c3)cc2C(=O)N(C)c2ccc(Cl)nc21 [Example 98] | > 60 |
| CCN1c2ncc(COc3cccc(F)c3)cc2C(=O)N(C)c2ccc(Cl)nc21 [Example 101] | > 60 |
| CCN1c2ncc(COc3ccc(F)cc3)cc2C(=O)N(C)c2ccc(Cl)nc21 [Example 103, 2-chloro-5,11-dihydro-11-ethyl-8-(4-fluorophenyloxy)methyl-5-methyl-6H-dipyrido[3,2-b:2',3'-e][1,4]diazepin-6-one] | > 60 |
